The subject of experiment [1] is pyruvate oxidation by diaphragm tissue from fat-fed rats. Nature of the experiment: Pyruvate oxidation (14C-pyruvate into CO2) by diaphragm tissue from fat-fed rats in vitro. The class given is cell-based. The settings on record: Rattus norvegicus, read-out: % Stimulation of pyruvate oxidation; for activation at 2000 µM: 2.0 mM compound in medium. On the procedure:
(1) increase the oxidation of glucose and/or pyruvate by isolated rat muscle preparation in vitro;
(1) (a) Diaphragm tissue is obtained from rats fed on a high fat diet similar to `Diet B` described by Zaragoza and Felber (Horm. Metab. Res. 1970, 2, 323). Pyruvate oxidation by such tissue is assessed by measurement of the rate of incorporation of carbon-14 carbon-14-labelled pyruvate into carbon dioxide in vitro, as described by Bringolf (Eur. J. Biochem. 1972, 26, 360). The rate of pyruvate oxidation is depressed by 50-75% compared with that by diaphragm tissue from rats fed on a normal diet. When the compounds of the formula (I) are added to the medium, they are found to stimulate pyruvate oxidation by diaphragm tissue from fat-fed rats in a dose dependent manner.
The degree of stimulation by the compounds of the formula (I) at a concentration of 2.0 mM (unless otherwise stated) is shown in the following Table.

Experiment [2] deals with pyruvate dehydrogenase (PDH). In words: Proportion of active pyruvate dehydrogenase (PDHa/PDHt) in hearts of fat-fed rats after dosing in vivo. On the set-up: species or system rat. To be noted: heart of fat-fed rats. On the procedure: (2) increase the proportion of the active form of the enzyme pyruvate dehydrogenase (PDH) in organs of animals (e.g. rats) in vivo; and
The ability of compounds of formula (I) to increase the proportion of the active form of the pyruvate dehydrogenase enzyme may be measured by the following test.
(2) Rats fed on a high fat diet as in test (1) (a), are treated either with placebo or with the compound of formula (I), by subcutaneous or intravenous injection or by oral administration, and at various times after treatment the rat hearts are removed and homogenized, under conditions which minimize changes in the proportion of the pyruvate dehydrogenase enzyme which is present in the active form, as described by Whitehouse and Randle (Biochem. J. 1973, 134, 651). The total amount of the enzyme present (PDHt) and the amount which is present in the active form (PDHa) are assessed by a method similar to that described by Taylor et al (J. Biol. Chem. 1973, 248, 73). The fat-feeding process is found to depress the ratio PDHa/PDHt from a normal value of about 0.7 to a value in the range from 0.05 to 0.2.

Experiment [3] deals with fasted, closed-chest, anesthetized beagle dogs. In words: Myocardial blood flow and metabolism in electrically paced, anesthetized beagle dogs, with or without isoprenaline. The experiment is classed as in vivo. The settings on record: 0.02 to 0.1 millimole/kg. intravenously; in the presence and absence of isoprenaline. An excerpt:
(3) reduce oxygen demand and affect the relative utilization of carbohydrate and lipid metabolites by the electrically-paced heart of an anesthetized dog in the presence or absence of an isoprenaline stimulus.
The ability of compounds of formula (I) to reduce oxygen demand and affect the relative utilization of carbohydrate and lipid metabolites in the heart may be assessed by measuring the effect of the compounds on myocardial blood flow and metabolism in fasted, closed-chest, anesthetized beagle dogs, with cardiac catheterization to enable simultaneous sampling of coronary sinus and arterial blood to be carried out. Coronary sinus blood flow is measured by the hydrogen gas clearance technique described by Aukland et al (Circulation Res. 1964, 14, 164). The heart is paced electrically at 155 beats/min. and recordings of hemodynamic parameters (blood pressure, left ventricular pressure and the first derivative of the latter) are made continuously. Control measurements of coronary blood flow are made and samples of blood taken at 40 min. intervals, both in an untreated animal and in the same animal dosed with an infusion of isoprenaline ([…].), which both stimulates cardiac contraction and increases plasma free fatty acid levels. The compound of formula (I) is then administered intravenously and measurements are made and samples taken again, 40 minutes and 90 minutes later. The blood samples from the artery and coronary sinus are analyzed for oxyhemoglobin, pyruvate and free fatty acid (FFA) content, differences between those of the arterial and coronary sinus blood, when multiplied by coronary blood flow, being a measure of oxygen consumption, pyruvate uptake and FFA uptake by the myocardium respectively.

Experiment [4] relates to rats in which diabetes has been induced by treatment with streptozotocin. In words: Blood glucose levels in streptozotocin-diabetic rats. The class given is in vivo. The settings on record: averages for 8 animals. On the procedure:
(4) decrease blood glucose levels in animals made diabetic by chemical lesion of the pancreas.
The ability of compounds of formula (I) to decrease blood glucose levels may be assessed by measuring their effect on blood glucose levels in rats in which diabetes has been induced by treatment with streptozotocin (85 mg./kg.). Four days after such treatment, a number of rats are given 1 millimole/kg. of the compound by intraperitoneal injection and a similar number are given placebo. The doses are repeated after a further 24 hours and 48 hours. Blood samples are taken from a tail vein immediately before each dosage (which is 2 hours after removal of the animals from food) and 1, 2 and 3 hours after the third dose.

The mark [5] stands for this setting: dose 1.2 mM/kg subcutaneous, 1.5 hours, placebo ratio 0.11-0.24 in the same line.

On to `Cc1cc(C(=O)C(=O)O)ccc1O` [R=OH, R1=3-CH3, R2=OH, p-hydroxy-m-methylphenylglyoxylic acid], for which, in experiment [1], the activation at 2000 µM was found to be 21%. Further, in experiment [2] (setting [5]), the “PDHa/PDHt ratio at 1.5 hours (Compound)” value amounted to 0.31.

On to `CCOC(=O)C(=O)c1ccc(O)cc1` [R=OH, R1=H, R2=OC2H5, ethyl p-hydroxyphenylglyoxylate], for which the activation at 2000 µM in experiment [1] is 83%.

Turning to `CCOC(=O)C(=O)c1ccc(OCC)cc1` [R=OC2H5, R1=H, R2=OC2H5, ethyl p-ethoxyphenylglyoxylate], the “PDHa/PDHt ratio at 1.5 hours (Compound)” value in experiment [2] (setting [5]) came out at 0.35.

For the molecule `COc1ccc(C(=O)C(=O)O)cc1` [R=OCH3, R1=H, R2=OH, p-methoxyphenylglyoxylic acid], the activation at 2000 µM in experiment [1] came to 127%. Moreover, in experiment [2] (setting [5]), the “PDHa/PDHt ratio at 1.5 hours (Compound)” value came out at 0.49.

With `O=C(O)C(=O)c1ccc(O)cc1` [p-hydroxyphenylglyoxylic acid], the activation at 2000 µM in experiment [1] was determined as 104%. Further, the “PDHa/PDHt ratio at 1.5 hours (Compound)” value in experiment [2] (setting [5]) was 0.28. In experiment [3], the “duration of increased myocardial pyruvate uptake after dosing” value was “at least 90 minutes”, the myocardial blood flow entry is given as “increased”, the myocardial oxygen consumption entry was “decreased” and the myocardial pyruvate uptake entry is recorded as “increases myocardial pyruvate uptake”. For the same molecule, the blood glucose level in experiment [4] (3 hours after the third dose, 1 millimole/kg. intraperitoneal, placebo 369±9) came out at 344±9 mg./100 ml. Moreover, the blood glucose level in experiment [4] (after 2 days of treatment, immediately before third dose, 1 millimole/kg. intraperitoneal daily, baseline 376±6, placebo 383±10) is 358±9 mg./100 ml.

Regarding `O=C(O)C(=O)c1ccc(Cl)cc1` [R=Cl, R1=H, R2=OH, p-chlorophenylglyoxylic acid], in experiment [1], the activation at 2000 µM came out at 71%.

As to `O=C(O)C(=O)c1ccc(O)c(I)c1` [R=OH, R1=3-I, R2=OH, p-hydroxy-m-iodophenylglyoxylic acid], the activation at 2000 µM in experiment [1] amounted to 55%.

Take `O=C(O)C(=O)c1ccccc1` [R=H, R1=H, R2=OH, phenylglyoxylic acid]: in experiment [1] (at 1mM), the activation at 1000 µM came to 25%. Moreover, the “PDHa/PDHt ratio at 1.5 hours (Compound)” value in experiment [2] (setting [5]) is 0.38.

Take `CC(C)Sc1ccc(C(=O)C(=O)O)cc1` [R=S . isopropyl, R1=H, R2=OH, p-(isopropylthio)phenylglyoxylic acid]: the activation at 2000 µM in experiment [1] was 200%.

In the case of `CSc1ccc(C(=O)C(=O)O)cc1` [R=SCH3, R1=H, R2=OH, p-(methylthio)phenylglyoxylic acid], the activation at 2000 µM in experiment [1] came to 123%. For the same molecule, the “PDHa/PDHt ratio at 1.5 hours (Compound)” value in experiment [2] (first of two doses shown only in drawing 5, subcutaneous, placebo 0.20) is 0.47; in experiment [2] (second of two doses shown only in drawing 5, subcutaneous, placebo 0.12), 0.24.

Consider `COc1ccc(C(=O)C(=O)O)cc1Cl` [R=OCH3, R1=3-Cl, R2=OH, m-chloro-p-methoxyphenylglyoxylic acid], for which the activation at 2000 µM in experiment [1] is 52%. Besides, in experiment [2] (setting [5]), the “PDHa/PDHt ratio at 1.5 hours (Compound)” value stood at 0.35.

For `CCCCSc1ccc(C(=O)C(=O)O)cc1` [R=S . n-butyl, R1=H, R2=OH, p-(n-butylthio)phenylglyoxylic acid], the activation at 2000 µM in experiment [1] came out at 113%.

Turning to `Cc1ccc(C(=O)C(=O)O)cc1` [R=CH3, R1=H, R2=OH, p-methylphenylglyoxylic acid], in experiment [1], the activation at 2000 µM came out at 71%. Also, the “PDHa/PDHt ratio at 1.5 hours (Compound)” value in experiment [2] (setting [5]) is given as 0.20.

For `CC(C)(C)CSc1ccc(C(=O)C(=O)O)cc1` [R=SCH2 . t-butyl, R1=H, R2=OH], the activation at 2000 µM in experiment [1] is 67%.

As to `CCOc1ccc(C(=O)C(=O)O)cc1` [R=OC2H5, R1=H, R2=OH, p-ethoxyphenylglyoxylic acid], the activation at 2000 µM in experiment [1] stood at 91%. The “PDHa/PDHt ratio at 1.5 hours (Compound)” value in experiment [2] (setting [5]) is reported as 0.56.

As to `CCSc1ccc(C(=O)C(=O)O)cc1` [R=SC2H5, R1=H, R2=OH, p-(ethylthio)phenylglyoxylic acid], the activation at 2000 µM in experiment [1] worked out at 158%. In addition, the “PDHa/PDHt ratio at 1.5 hours (Compound)” value in experiment [2] (setting [5]) is 0.73.

The values above are taken from patent US4219566A, “Phenylglyoxylic acids and derivatives thereof” (Pfizer Inc., priority 1977, dated 1980).
